Several values for one entry are separate records, joined by “and”; a condition that tells them apart may be missing. Equal entries are not always repeated. Entries after “also recorded” stand apart in the source; their conditions may differ. Numbered stars: 1 amine (or outer) side, 2 acyl side, 3 side chain; on linkers, the order of the positions; unused ones are H or OH. Bridge positions count the residues as written; N and C are the ends. Square brackets hold non-standard residues; d marks the D form. Peptide text beside a SMILES is read from it. βAla(3R-(1-naphthyl)) = O=C(C[C@@H](N[*:1])c1cccc2ccccc12)[*:2]; βAla(3S-(1-naphthyl)) = O=C(C[C@H](N[*:1])c1cccc2ccccc12)[*:2]
Tests used:
[1] = test system: HER2 overexpressing BT-474 breast cancer cell lines; settings: read-out: antiproliferative activity IC50
Experimental: (§1) X=Anapa, amino naphthyl propionic acid, specifically, 3-amino 3(1-napthyl) propionic acid. Single letter amino acid code was used for peptide sequence. Small letters refer to D amino acids and capital letters refer to L amino acids. Chirality of Anapa was indicated with R and S configuration in italics. Antiproliferative activity of peptides in cancer cell lines are given as IC50 μM. Disulfide bond between the cysteines is shown in underline.

[2] = test system: HER2-overexpressing lung cancer Calu-3 cell lines; settings: read-out: antiproliferative activity IC50
Experimental: as §1

[3] = test system: MCF-7 cell lines that do not overexpress the HER2 protein
Experimental: as §1

[4] = test system: normal breast epithelial cell line MCF-10A; settings: for IC50: read-out: antiproliferative activity IC50, MCF-10A
Experimental: as §1
Design of grafted peptides: Peptidomimetics were designed to bind to HER2 protein domain IV and inhibit PPI of HER2:HER3 and EGFR:HER2.

[5] = test system: NCI-H1975 (EGFR L858R/T790M double mutation); settings: read-out: antiproliferative activity IC50
Experimental: as §1
The inventor therefor designed compounds to bind to the extracellular domain and inhibit the downstream signaling. NCI-H1975 is a cell line that harbors the EGFR L858R/T790M double mutation.

[6] = test system: phosphorylation of HER2 kinase; assay: Western blot of HER2 phosphorylation in A549 cells; assay type: cell-based; settings: 1 μM, incubation 40 h
Experimental: Lapatinib (2 μM) was used as positive control. Incubation 40 h. *p<0.05 **P<0.01.
Lapatinib, a known inhibitor of HER2, was used as a positive control.

[7] = test system: EGFR mutated NSCLC cell line NCI-H1975; assay: Synergy with TKI (isobologram) in NCI-H1975; assay type: cell-based
[8] = test system: BT-474 cell lines that overexpress HER2; assay: Synergy with TKI (isobologram) in BT-474; assay type: cell-based
[9] = test system: Calu-3 lung cancer cell lines that overexpresses HER2; assay: Synergy with TKI (isobologram) in Calu-3; assay type: cell-based
[10] = Thermal stability by CD spectroscopy; assay type: physicochemical; settings: temperature changed from 25 to 80° C. (85 C)
Experimental: Overall conformation of the peptide remained the same at all temperatures studied.
(§2) However, CD spectra of peptides provide the information about the overall average conformation of the peptide in solution. To verify that the peptide was stable even at high temperature, the samples of peptide that were heated to 80 C was analyzed by mass spectrometry. […] The CD spectra of compound 18 was also verified using mass spectrometry analysis (FIG. 22).

[11] = Thermal stability by MALDI-TOF mass spectrometry; assay type: physicochemical; settings: 25° C., 50° C., 80° C., MALDI-TOF-MS
Experimental: FIGS. 12A-12C are three charts showing thermal stability of the disclosed H2TPFGGoCSs using mass spectrometry.
as §2

[12] = test system: trypsin; assay: Stability in trypsin (HPLC); assay type: in vitro ADME; settings: pH 7.4, 37° C, 24 hours
Experimental: The trypsin inhibition assay was performed with a modified Erlanger's method. […] Samples at different incubation times were analyzed by HPLC.

[13] = Stability in human serum (in vitro, HPLC); assay type: in vitro ADME
Source text: At different time points, aliquots of sample were taken and subjected to extraction of compound using cold acetonitrile. Samples were freeze dried and quantified by HPLC method. […] Nearly 60% of sample is intact peptide.

[14] = test system: A549 Red-FLuc NSCLC cells; assay: A549 Red-FLuc lung cancer model in athymic nude mice; assay type: in vivo, mice (Foxn1-nude); settings: 6 mg/kg IV twice a week
Experimental: A549 cells with luciferase were injected to induce lung cancer in mice (Foxn1-nude). One week after injection of cells, mice were monitored for lung cancer development using luciferin imaging. Peptide was administered via IV twice a week after 2 weeks of cell injections. Representative images: In the control group (row 1) lung cancer tumor growth increased in 5 weeks.
FIG. 17 is a chart showing relative luminescence intensity (total photon flux/sec) plotted for 3 animals and a control.
FIG. 18A is a plot of relative luminescence intensity (total photon flux/sec) plotted for 4 animals and controls from the lung cancer study, *p<0.05, and FIG. 18B is a plot displaying bodyweight change of mice during the study.
Athymic nude mice (Foxn1-nude, 6-7 weeks old) were purchased from Harlan laboratories. Mice were acclimatized for one week in the vivarium. 4.5×10^6 A549 Red-FLuc NSCLC cells in 150 μL PBS were injected into each mouse via tail vein (IV). Total of four mice were injected with cells. Mice were monitored for 2 weeks. After 1 week, mice were injected with luciferin (200 μL in PBS, IP injection) and imaged under anesthesia using IVIS (Perkin Elmer) instrument. Bioluminescence was measured from each animal. One animal was used as a control. Peptide treatment started after 2 weeks from injection of cells and peptide was prepared in PBS and administered via i.v. with a dose of 6 mg/kg in 100 μL twice a week. Animals were imaged once a week to monitor the progression of lung cancer. Images were quantified using Living Image Software (Perkin Elmer). Bioluminescence signal for each mouse was expressed as total flux of photons/sec. Region of interest tool was used to measure the total photon flux/sec. A graph of bioluminescence for each mouse was plotted with respect to time (each week). After five weeks mice were terminated, and tumor sections and lungs were removed by surgical procedure. Tumor sections were fixed, embedded in […], and cut into 5 μm slices. […] Images were viewed under a fluorescence microscope (Olympus BX63 microscope) at 40× magnification. […]

[15] = for appearance in water (turbidity): 0.5 mg in 1 mL water, compared to blank
Experimental: 0.5 mg of each compound was added to water in 1 mL. […] If a compound is highly soluble in water, it may not pass through intestinal barrier. Compound should be slightly lipophilic to pass through intestinal barrier.

[16] = biological target: HER2 protein extracellular domain (ECD) (Homo sapiens, UniProt P04626); assay: SPR binding to HER2 extracellular domain; settings: SPR sensorgram
Source text: Surface plasmon resonance (SPR) analysis of binding of grafted peptide with HER2 ECD protein at different concentrations. […] SPR analysis of binding of grafted peptide with HER2 ECD domain IV protein at different concentrations.
To evaluate the binding of the grafted peptide to HER2 protein ECD, surface plasmon resonance (SPR) analysis was used.

[17] = biological target: T1, human serum albumin (HSA) (human, UniProt P02768 25-609); assay: SPR
T1 construct: also called HSA protein
T1 sequence (P02768 25-609 limits assumed): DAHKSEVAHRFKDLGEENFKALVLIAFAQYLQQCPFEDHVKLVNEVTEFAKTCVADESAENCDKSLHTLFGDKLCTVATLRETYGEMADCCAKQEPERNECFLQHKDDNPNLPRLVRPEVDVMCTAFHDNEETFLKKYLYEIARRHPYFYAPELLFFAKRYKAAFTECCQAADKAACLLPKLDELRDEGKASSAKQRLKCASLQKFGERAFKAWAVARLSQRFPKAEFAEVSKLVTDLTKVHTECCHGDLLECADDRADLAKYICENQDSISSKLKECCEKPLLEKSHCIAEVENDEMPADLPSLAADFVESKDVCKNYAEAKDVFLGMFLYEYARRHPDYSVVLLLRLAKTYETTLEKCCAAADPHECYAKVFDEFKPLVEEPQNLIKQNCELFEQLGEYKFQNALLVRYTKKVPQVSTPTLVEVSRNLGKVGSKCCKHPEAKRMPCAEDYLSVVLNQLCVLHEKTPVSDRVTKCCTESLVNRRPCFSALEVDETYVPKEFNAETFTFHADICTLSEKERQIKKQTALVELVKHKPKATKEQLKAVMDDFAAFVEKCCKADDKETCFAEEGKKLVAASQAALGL

Q: For `CC[C@H](C)[C@@H]1NC(=O)[C@H](CCCNC(=N)N)NC(=O)C[C@@H](c2cccc3ccccc23)NC(=O)[C@@H]2CSSC[C@H](NC(=O)C[C@@H](c3cccc4ccccc34)NC(=O)[C@H](CCCNC(=N)N)NC(=O)[C@@H]3CCCN3C(=O)[C@@H]3CCCN3C1=O)C(=O)N[C@@H](Cc1ccccc1)C(=O)N1CCC[C@H]1C(=O)N[C@@H](CC(=O)O)C(=O)N[C@@H](CC(=O)O)C(=O)N[C@@H](Cc1ccccc1)C(=O)N2` [SFTI-G5, Cyclo(C(S-X)RIPPR(S-X)CFPDDF)], which IC50 [1] is on record?
A: The IC50 was 280 nM.

Q: What about the IC50 [2] of the same molecule?
A: Its IC50 is 73 nM.

Q: What about the “antiproliferative activity, times less against HER2-ve cell lines” value ([3]; as printed: less than its activity against HER2-ve cell lines) of the same molecule?
A: Its value is ~300 times.

Q: What about the IC50 ([3]; read-out: antiproliferative activity IC50, MCF-7) of the same molecule?
A: Its IC50 is 25 µM.

Q: What about the “antiproliferative activity, times less in noncancerous breast cell lines compared to Calu-3” value ([4]; MCF-10A vs Calu-3) of the same molecule?
A: The value was “more than 500 times”.

Q: What about the IC50 [4] of the same molecule?
A: Its IC50 is 40 µM.

Q: What about the IC50 [5] of the same molecule?
A: Its IC50 is 4.22 µM.

Q: What about the “inhibition of HER2 phosphorylation” value [6] of the same molecule?
A: Its value is “inhibits phosphorylation of HER2 kinase; also recorded: reduces HER2 phosphorylation”.

Q: What about the “synergistic effect with erlotinib (isobologram)” value ([7]; NCI-H1975, combination with erlotinib) of the same molecule?
A: The value was “synergistic”.

Q: And the “synergistic effect with lapatinib (isobologram)” value ([7]; NCI-H1975, combination with lapatinib)?
A: Its value is “synergistic”.

Q: And the “synergistic effect with erlotinib (isobologram)” value ([8]; BT-474, combination with erlotinib)?
A: Its value is “synergistic”.

Q: What about the “synergistic effect with lapatinib (isobologram)” value ([8]; BT-474, combination with lapatinib) of the same molecule?
A: Its value is “synergistic”.

Q: And the “synergistic effect with erlotinib (isobologram)” value ([9]; Calu-3, combination with erlotinib)?
A: The value was “synergistic”.

Q: And the “synergistic effect with lapatinib (isobologram)” value ([9]; Calu-3, combination with lapatinib)?
A: Its value is “synergistic”.

Q: And the “thermal stability, CD spectra” value [10]?
A: The value was “stable from 25 C to 85 C; also recorded: more stable than compound 18; also recorded: no significance difference in the CD spectra”.

Q: What about the “thermal stability, mass spectrometry” value [11] of the same molecule?
A: The value was “stable up to 80 C; also recorded: thermally stable”.

Q: What about the stability in trypsin [12] of the same molecule?
A: The stability in trypsin was “stable in trypsin assay”.

Q: What about the “time of stability in human serum” value ([13]; 2 mg/mL in human serum, HPLC) of the same molecule?
A: Its value is “up to 50 h”.

Q: What about the remaining at 50 h, 2 mg/mL ([13]; human, human serum, up to 50 h, read-out: intact peptide in human serum) of the same molecule?
A: Its remaining at 50 h, 2 mg/mL is ~60%.

Q: What about the “histological analysis of lung tissue” value [14] of the same molecule?
A: Its value is “reduced pathological features associated with tumor development”.

Q: What about the “tumor growth (bioluminescence, total photon flux/sec)” value ([14]; weeks 4 and 5, vs control) of the same molecule?
A: The value was “reduced growth of tumors; also recorded: tumor growth was reduced compared to the control group; also recorded: reduction in the luminescence intensity of tumors”.

Q: What about the “body weight change of mice” value ([14]; during the study) of the same molecule?
A: The value was “No changes in body weight were observed”.

Q: What about the “appearance in water (turbidity)” value [15] of the same molecule?
A: The value was “slightly turbid”.

Q: With `N=C(N)NCCC[C@@H]1NC(=O)[C@H]2CCCN2C(=O)[C@@H]2CCCN2C(=O)[C@H](CCCNC(=N)N)NC(=O)C[C@H](c2cccc3ccccc23)NC(=O)[C@H](Cc2ccccc2)NC(=O)[C@H](CC(=O)O)NC(=O)[C@H](CC(=O)O)NC(=O)[C@H](Cc2ccccc2)NC(=O)C[C@H](c2cccc3ccccc23)NC1=O` [compound 18, reference compound] (cyclo(P[dP]R[βAla(3R-(1-naphthyl))]FDDF[βAla(3R-(1-naphthyl))]R)) as the molecule, how does the IC50 [4] read?
A: The IC50 was 40 µM.

Q: And the solubility [15]?
A: Its solubility is < 500 µg/mL.

Q: For “Cyclo(C(S-X)RIHyPHyPR(S-X)CFPDDF) [SFTI-G7]”, which “appearance in water (turbidity)” value [15] is on record?
A: Its value is “slightly turbid”.

Q: Which “binding to HER2 protein (in words)” value [16] does the source give for “H2N—K(3-aminobiphenyl propionic acid)F—OH [control peptide]” here?
A: The value was “does not bind to HER2 protein; also recorded: no binding was observed”.

B1: SFTI-G5 (peptide)
peptide: cyclo(C[βAla(3S-(1-naphthyl))]RIPPR[βAla(3S-(1-naphthyl))]CFPDDF)
modifications: disulfide 1-9
notes: also called grafted peptide; grafted SFTI peptide
Q: With B1 as the molecule, how does the Kd [17] read?
A: The Kd was 56.9 µM and 56 µM.
